Patent EP2307018B1, “OXYMATRINE COMPOSITIONS AND USE THEREOF FOR TREATING AND PREVENTING CHRONIC INFECTIOUS DISEASES” (Chia, John K.S., priority 2008, dated 2010)

Assays:
enterovirus [1] = test: case report Example 10, acute enterovirus infection of the gastrointestinal tract; assay type: in vivo, human
Excerpt: A person developed subacute onset of severe fatigue, nausea, anorexia and progressive weight loss of 20 pounds following an upper respiratory infection.

enterovirus protein = test: immunoperoxidase staining of stomach biopsy before and after oxymatrine; assay type: in vivo, human; conditions: one patient (case 5), after taking oxymatrine for 6 months, correlated with symptomatic improvement
Excerpt: FIG. 2 illustrates immunoperoxidase staining for enterovirus protein in a stomach biopsy before oxymatrine therapy for one patient. […] The decrease in viral protein correlated with significant symptomatic improvement.

[2] = system: varicella-zoster virus (VZV); test: case report Example 9, chronic recurrent varicella-zoster virus infection (shingles); assay type: in vivo, human; conditions: 200 mg bid
Procedure: A person developed recurrent shingles after multiple episodes of sinus infections and sinus surgeries. They also had chronic indigestion and nausea. Fatigue became so severe that they were bedridden for several years.
Coxsackievirus B4 antibody was 1:320. […] The patient was started on oxymatrine 200 mg bid.

[3] = system: Coxsackie B virus (CBV) 3, CVB4 and echovirus 9; test: case report Example 2, treatment of chronic fatigue; assay type: in vivo, human
Procedure: A person with episodes of diarrhea while traveling to Tonga developed severe respiratory infection soon thereafter. The symptoms consisted of fevers to 105°F, night sweats, diffuse myalgia, tachycardia, fatigue, sinus congestion and cough, and unresponsiveness to antibiotics. The patient developed profound fatigue thereafter and went on total disability three months after the onset of symptoms. Initial Coxsackie B virus (CBV) 3, CVB4 and echovirus 9 antibody titers were 1:320, 1:160, 1:80 (normal <1:10), respectively.
The patient could not work for the next 18 months. They were started on oxymatrine at 300 mg twice a day (bid). After taking oxymatrine for two months, they were able to take short walks, but still exhausted after one hour of activity requiring five hour naps. At the end of three months of therapy, they started having fevers of 104-105°F for several days with marked decrease in diffuse myalgia. […] CVB3, CVB4 and echovirus antibody three months after therapy were 1:160, 1:160 and 1:20, respectively.

hepatitis B = conditions: oral, after one year of treatment; comparable to interferon-α injection; cited from earlier work
enterovirus [4] = test: open-label, controlled oxymatrine clinical study in ME/CFS patients with enterovirus infection; assay type: in vivo, human
Procedure: An open-label, controlled study was conducted on patients who fulfilled the international criteria for myalgic encephalomyelitis (ME)/chronic fatigue syndrome (CFS) and had virological evidence of enterovirus infection.
One hundred patients took oxymatrine at dose of 200-300 mg twice a day with or without food for a minimum of three months. Patients who could not complete the course due to side effects or intolerance were considered as failures (intent-to-treat analysis). Of the first group, 52% (52/100) responded to oxymatrine, as compared to 6% (7/114) of the control groups (p <0.000001, X^2 test). Of the next 104 patients, 52% responded to treatment. […] Fifty-three percent (57/107) of patients with elevated […] (CVB) and echovirus (Ech) antibody responded to therapy and 50% (49/97) of patients with non-typeable EV infections improved (NS, X^2 test). Fifty-two percent (47/91) of patients with positive EV protein in stomach biopsies responded, whereas 56% (5/9) of patients with negative biopsies responded (NS, X^2 test).

enterovirus [5] = test: case report Example 5, treatment of chronic fatigue; assay type: in vivo, human
Procedure: A person developed debilitating fatigue, sore throat, oral ulcers, vertigo, headaches and cognitive dysfunction two months after having a flu-like illness. […] Approximately four years later, the patient started taking oxymatrine. After an initial increase of gastrointestinal symptoms for the first two weeks, the patient tolerated 500 mg per day of oxymatrine.
The symptoms continued for two weeks and resolved after stopping oxymatrine. […] They continued to improve for 12 months after taking the medication.

hepatitis B virus = conditions: cited from earlier work
coxsackievirus B = conditions: in vitro; mechanism not defined; cited from earlier work
enterovirus [6] = test: case report Example 4, treatment of chronic fatigue; assay type: in vivo, human
Procedure: A person with a known history of frequent respiratory infections and vasovagal syncope developed respiratory infection, which was followed by bedridden fatigue. Enteroviral protein was detected in the stomach biopsy consistent with chronic enterovirus infection. […] After vigorous exercise, they would still have relapses of bedridden fatigue for one day but continued to work 10-12 hours per day for the next 12 months, walking two miles per day. Laboratory tests were normal while on therapy.

[7] = side effects in 176 patients having taken oxymatrine
[8] = compared to placebo-treated animals

Question: What does the source list for `O=C1CCC[C@@H]2[C@H]3CCC[N+]4([O-])CCC[C@@H](CN12)[C@@H]34` (stereo partly shown) [oxymatrine]?
Answer: symptoms (enterovirus [1]; 200 mg bid): promptly responded; activity (enterovirus [1]; after taking oxymatrine for ten days): resumed their normal activity; viral protein by staining with enterovirus-specific monoclonal antibody (5 D8/1) (enterovirus protein): significant reduction; outbreaks of shingles [2]: less often and not as severe; clinical outcome ([2]; three months, previously bedridden): went back to full-time work; clinical outcome ([3]; 300 mg bid for three months, three months after finishing the medication, previously on total disability): went back to full-time work; fevers ([3]; at the end of three months of therapy, for several days, with marked decrease in diffuse myalgia): 104-105 °F; laboratory studies including CBC and complete chemistry panel ([3]; during therapy, calcium resolved after stopping hydrochlorothiazide): normal except mildly elevated calcium levels; relapse after therapy ([3]; in vivo): had not relapsed for at least one year after therapy; overall cure rate (hepatitis B): about 40%; changes of other chemistry parameters and complete blood counts (CBC) (enterovirus [4]; compared to baseline values): no significant changes; patients who relapsed responded to restart of oxymatrine (enterovirus [4]; eighty-seven percent): 13/15; patients responded to oxymatrine (enterovirus [4]; first group (52/100), 200-300 mg twice a day, minimum three months, intent-to-treat, control groups 6% (7/114), p <0.000001): 52%; patients reporting transient, moderate increase in pre-existing symptoms (enterovirus [4]; human, in vivo): more than 50%; patients with elevated blood pressure that prompted discontinuation of therapy (enterovirus [4]; human, in vivo): 2/204; serious complications during therapy (enterovirus [4]; human, in vivo): No serious complications; tolerability (enterovirus [4]; most of the patients, except for variable increase of pre-existing symptoms during the first 1-2 days of maximal doses): tolerated oxymatrine well; patients responded to treatment (enterovirus [4]; next 104 patients): 52%; patients responded to therapy (enterovirus [4]; patients with elevated chrysanthemum virus B (CVB) and echovirus (Ech) antibody, fifty-three percent): 57/107; patients responded (enterovirus [4]; patients with negative biopsies (5/9)): 56%; patients improved (enterovirus [4]; patients with non-typeable EV infections (49/97)): 50%; patients responded (enterovirus [4]; patients with positive EV protein in stomach biopsies, fifty-two percent): 47/91; patients with transient increase in potassium (enterovirus [4]; returned to normal without specific treatment): 2/204; Diffuse rashes: % of total patients (enterovirus [4]; [7]): < 1%; Dry eyes and mouth: % of total patients (enterovirus [4]; [7]): 1%; Fevers: % of total patients (enterovirus [4]; [7]): 2%; Herpes simplex virus outbreak after discontinuation: % of total patients (enterovirus [4]; [7]): 1%; Increase in blood pressure: % of total patients (enterovirus [4]; [7]): 1%; Increase in edema: % of total patients (enterovirus [4]; [7]): 1%; Increased abdominal pain: % of total patients (enterovirus [4]; [7]): 6%; Increased bladder symptoms: % of total patients (enterovirus [4]; [7]): 2%; Increased diarrhea: % of total patients (enterovirus [4]; [7]): 4%; Increased dizziness: % of total patients (enterovirus [4]; [7]): 2%; Increased fatigue: % of total patients (enterovirus [4]; [7]): 4%; Increased headache: % of total patients (enterovirus [4]; [7]): 8%; Increased insomnia: % of total patients (enterovirus [4]; [7]): 1%; Increased myalgia: % of total patients (enterovirus [4]; [7]): 30%; Increased nausea: % of total patients (enterovirus [4]; [7]): 6%; Increased palpitation, chest pain: % of total patients (enterovirus [4]; [7]): 3%; Increased polyarthralgia: % of total patients (enterovirus [4]; [7]): 1%; Increased sinus congestion: % of total patients (enterovirus [4]; [7]): 3%; Inflammation of skin lesion: % of total patients (enterovirus [4]; [7]): 1%; New rashes: % of total patients (enterovirus [4]; [7]): < 1%; Seizure (petit mal): % of total patients (enterovirus [4]; [7]): < 1%; Weight gain: % of total patients (enterovirus [4]; [7]): 1%; patients who stopped oxymatrine due to intolerable side effects (enterovirus [4]; within the first eight weeks, twenty patients): 10%; patients relapsed after discontinuation of oxymatrine (enterovirus [4]; within two days to one month after discontinuation, fifty-nine percent): 19/32; clinical outcome (enterovirus [5]; three months after stopping oxymatrine): only had mild symptoms and was able to return to part-time work and regular exercise; adverse symptoms (enterovirus [5]; two months after taking the medication, 500 mg per day, continued two weeks, resolved after stopping): severe diffuse ulcerations of the mouth mucosa, increasing headache, sinus congestion and severe myalgia; level of gamma interferon (hepatitis B virus; [8]): increased more than three-fold; level of interleukin-2 (hepatitis B virus; [8]): increased more than three-fold; level of interleukin-4 (hepatitis B virus; [8]): decreased more than three-fold; level of interleukin-10 (hepatitis B virus; [8]): decreased more than three-fold; effect on the hepatitis B viremia, mRNA and protein levels (hepatitis B virus; mouse, in vivo): No effect; growth inhibition of coxsackievirus B in cell cultures (coxsackievirus B): growth inhibition; clinical outcome (enterovirus [6]; after taking the medication for six weeks, previously bedridden fatigue): returned to full-time work; tolerability (enterovirus [6]; in vivo): tolerated well without any adverse reactions; laboratory tests (enterovirus [6]; while on therapy): normal
